Data on 16 molecules can be found in patent US20240366606A1, “MRGPRX2 ANTAGONISTS AND USES THEREOF” (The Regents of the University of California, priority 2021, published 2024).

Assay [1] deals with T1, MRGPRX2 (Homo sapiens (Human), UniProt Q96LB1). Nature of the assay: FLIPR Ca2+ assay, antagonist mode, tetracycline-inducible MRGPRX2 stable cell line. It is filed as cell-based. Particulars: for inhibition of substance P stimulated MRGPRX2 activation: EC80 substance P concentration; for antagonist activity for MRGPRX2: in words, SAR around '1592. Here is the method:
FLIPR Ca2+ assay. […] NK1 stably expressing cell were maintained in DMEM containing 10% (v/v) FBS, 100 units ml^−1 penicillin G and 100 μg ml^−1 streptomycin. On the day of assay, cells were plated into Poly-L-Lysine (PLL) coated 384-well black clear bottom cell culture plates with DMEM buffer, which is composed of 1% (v/v) dialyzed FBS, 100 units ml^−1 penicillin G, 100 μg ml^−1 streptomycin with 1 μg ml^−1 tetracycline at density of 20,000 cells in 40 μl per well for overnight. For NK1 stable cells, the same media used for MRGPRX2 or MRGPRX4 cells except the tetracycline were used. Medium was removed and cells were incubated with 20 μl of calcium dye (FLIPR Calcium 4 Assay Kit; Molecular Devices) diluted in assay buffer (1×HBSS, 2.5 mM probenecid, and 20 mM HEPES, pH 7.4) for 1 hour at 37° C. and 20 min at room temperature in the dark. To measure agonist activity of receptors, drug plates were prepared with increasing concentrations of test compound at 3 times the desired final concentration using drug buffer (1×HBSS, 20 mM HEPES, 0.1% (w/v) BSA, pH 7.4). Once loaded in FLIPR (Molecular Devices), basal fluorescence was measured for 10 s, then 10 μl of test compounds were added followed by continued fluorescence measurement for an additional 120 s. When measuring antagonist activity of receptors, drug plates were prepared with increasing concentrations of test compound at 4 times the desired final concentration, added as above for their potential effects on basal levels for 120 s first, followed by a 15 min incubation before addition of 10 μl of 4× of reference agonist at final concentration corresponding to the EC80. Data were normalized to % reference compound stimulation and analyzed using nonlinear regression “log(agonist) vs. response” in GraphPad Prism 9.0.

Assay [2] has as its system a number of GPCRs, ion channels and transporters. Kind of assay: Off-target profiling / inhibition screen (NIMH PDSP binding assays). The settings on record: screened at 10 μM. Here is the method: Inhibition screen. Binding assays were performed by the NIMH Psychoactive Drug Screening program as described previously (PMID: 23235874). Detailed binding assay protocols are available at: https://pdspdb.unc.edu/pdspWeb/content/UNC-CH %20Protocol %20Book.pdf.

The target of assay [3] is T1, MRGPRX2. Kind of assay: BRET1 recruitment assay (inverse agonist activity, miniGq recruitment) in HEK293T cells. It counts as cell-based. Here is the method: Bioluminescence resonance energy transfer assay 1 (BRET1). To test the inverse agonist activities of MRGPRX2 compounds, BRET1 recruitment assay was performed. Human MRGPRX2 containing C-terminal Renilla luciferase (RLuc8), and Venus-tagged miniGq were co-transfected at a ratio of 1:5 using HEK293T cells. After 20-24 hours, transfected cells were plated into poly-L-lysine coated 96-well clear bottom white plate in plating media (DMEM+1% (v/v) dialyzed FBS). The next day, media was decanted and cells were washed once with 60 μl drug buffer (1×HBSS, 20 mM HEPES, 0.1% (w/v) BSA, pH 7.4), then 60 μl drug buffer containing 5 μM coelenterazine h (Promega) was added to each well and incubate for 5 min. Cells were then treated with 30 μl of 3× designated drug for an additional 5 minutes. After drug incubation, plates were read in an LB940 Mithras plate reader (Berthold Technologies) for both luminescence at 485 nm and fluorescent eYFP emission at 530 nm for 1 s per well. The ratio of eYFP/RLuc was calculated per well and the net BRET ratio was calculated and fitted using “log(inhibitor) vs. response” in GraphPad Prism 9.0 to represent the inhibitory effect of MRGPX2 compound.
In general terms: BRET reads energy transfer from a luciferase to a nearby fluorophore.

The target of another assay is MRGPRX4 (Homo sapiens (Human), UniProt Q96LA9). Kind of assay: FLIPR Ca2+ assay, antagonist mode, tetracycline-inducible MRGPRX4 stable cell line. It is filed as cell-based. As to the method: (§1) FLIPR Ca2+ assay. Tetracycline inducible MRGPRX2 or MRGPRX4 stable cells [Flp-In™ T-REx™-293 cell which is derived from HEK 293 cells (ATCC, CRL 1573)] were maintained in DMEM containing 10% (v/v) FBS, 100 units ml^−1 penicillin G, 100 μg ml^−1 streptomycin, 100 μg ml^−1 hygromycin B, and 15 μg ml^−1 blasticidin ^16. NK1 stably expressing cell were maintained in DMEM containing 10% (v/v) FBS, 100 units ml^−1 penicillin G and 100 μg ml^−1 streptomycin. On the day of assay, cells were plated into Poly-L-Lysine (PLL) coated 384-well black clear bottom cell culture plates with DMEM buffer, which is composed of 1% (v/v) dialyzed FBS, 100 units ml^−1 penicillin G, 100 μg ml^−1 streptomycin with 1 μg ml^−1 tetracycline at density of 20,000 cells in 40 μl per well for overnight. For NK1 stable cells, the same media used for MRGPRX2 or MRGPRX4 cells except the tetracycline were used. […] Once loaded in FLIPR (Molecular Devices), basal fluorescence was measured for 10 s, then 10 μl of test compounds were added followed by continued fluorescence measurement for an additional 120 s. […] Data were normalized to % reference compound stimulation and analyzed using nonlinear regression “log(agonist) vs. response” in GraphPad Prism 9.0.

A further assay concerns the target NK1R (Homo sapiens (Human), UniProt P25103). Kind of assay: FLIPR Ca2+ assay, antagonist mode, NK1R stable cell line. It is filed as cell-based. As to the method:
as §1

The test system of another assay is LAD2 human mast cells. Kind of assay: Human mast cell activation (beta-hexosaminidase release) assay. It counts as cell-based. The settings on record: (R)-ZINC-3573 stimulation; listed as C9. Here is the method:
Human Mast Cell activation (Beta-hexosaminidase release) Assay. Mast cell activation was assessed by measuring extracellular release of Beta-hexosaminidase, a major component of mast cell granules. To assay human mast cell Beta-hexosaminidase release, LAD2 human mast cells were seeded at a concentration of 2*10^5 cells per well in 96-well plates in Tyrode's buffer (100 μl). 15 minutes prior to activation, varying concentrations of either C7 or C9 were added to the wells to reach a total volume of 190 μl. For activation, (R)-ZINC-3573 (10 μl, 2 μM) was added to each well for 30 minutes at 37° C. Separate wells received either buffer (buffer control), 0.1% Triton X-100 (total beta-hexosaminidase control), or (R)-ZINC-3573 alone (positive control) for the same amount of time. 30 μl of the supernatant were then removed from each well and added to 10 μl of NAG substrate solution (p-nitrophenyl-N-acetyl-β-D-glucosaminide) and allowed to incubate for 1 hour at 37° C. Carbonate buffer (100 μl) was then added to each well and the absorbance of each well was immediately measured at 405 nm using a plate reader. Percent degranulation (%) was calculated as follows: ((Treatment release−buffer release)/(total release−buffer release))*100. Samples were run in quadruplicate and each compound was assayed in at least two independent experiments. Data were analyzed using GraphPad Prism 9.0.

Where [4] appears, read: Table 1, read-out: pKi (calc.) (converted).
The mark [5] stands for this setting: antagonist activity at MRGPRX2, EC80 (R)-ZINC-3573 (3 μM), read-out: Ki value.

Each structure is given as a SMILES string. Entries after “also recorded” stand apart in the source; their conditions may differ. Like-named read-outs stand apart in the source and are kept apart here.

T1 sequence (Q96LB1 whole entry): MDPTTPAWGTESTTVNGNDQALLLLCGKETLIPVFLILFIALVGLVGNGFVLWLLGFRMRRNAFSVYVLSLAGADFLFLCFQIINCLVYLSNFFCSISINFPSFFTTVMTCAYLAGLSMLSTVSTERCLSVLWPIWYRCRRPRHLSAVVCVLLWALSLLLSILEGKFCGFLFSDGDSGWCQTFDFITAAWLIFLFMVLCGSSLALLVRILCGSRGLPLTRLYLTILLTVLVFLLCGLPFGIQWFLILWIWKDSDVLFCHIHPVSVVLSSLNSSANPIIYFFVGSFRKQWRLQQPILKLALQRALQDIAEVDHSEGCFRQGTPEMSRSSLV
NK1R, sequence (P25103 whole entry, species assumed): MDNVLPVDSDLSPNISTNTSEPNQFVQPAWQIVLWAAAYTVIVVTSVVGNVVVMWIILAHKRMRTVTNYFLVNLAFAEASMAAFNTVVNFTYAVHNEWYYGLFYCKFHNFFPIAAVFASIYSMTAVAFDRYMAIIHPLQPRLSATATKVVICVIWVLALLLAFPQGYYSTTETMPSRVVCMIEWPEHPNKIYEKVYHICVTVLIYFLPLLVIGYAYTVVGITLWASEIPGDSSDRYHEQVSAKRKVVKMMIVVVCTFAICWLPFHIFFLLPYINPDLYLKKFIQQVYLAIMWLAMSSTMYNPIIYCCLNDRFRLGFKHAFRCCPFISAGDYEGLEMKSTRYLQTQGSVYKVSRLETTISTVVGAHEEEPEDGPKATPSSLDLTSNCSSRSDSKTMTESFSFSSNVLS
MRGPRX4, sequence (Q96LA9 whole entry): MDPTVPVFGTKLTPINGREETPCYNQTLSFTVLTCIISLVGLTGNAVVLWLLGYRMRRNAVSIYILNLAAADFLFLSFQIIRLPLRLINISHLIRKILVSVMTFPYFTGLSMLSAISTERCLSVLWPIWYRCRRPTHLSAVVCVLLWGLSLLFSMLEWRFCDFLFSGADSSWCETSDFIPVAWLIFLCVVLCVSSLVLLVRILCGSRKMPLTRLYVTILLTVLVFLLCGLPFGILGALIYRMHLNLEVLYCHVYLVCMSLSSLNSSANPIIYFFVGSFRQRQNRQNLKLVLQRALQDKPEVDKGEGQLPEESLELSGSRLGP

With `Cn1ccnc1Cn1c(=S)[nH]c2ccccc2c1=O` [Compound 6], at MRGPRX2 [1] (Table 1), the “pKi (calc.)” value is reported as 6.5. Moreover, the Ki at MRGPRX2 [1] (Table 1, read-out: Ki) was 318 nM.

`O=c1c2cc(F)ccc2[nH]c(=S)n1Cc1ccccn1` [Compound 14]: at MRGPRX2 [1] (Table 1), the “pKi (calc.)” value is 5.6. The Ki on MRGPRX2 [1] (Table 1, read-out: Ki) was 2520 nM.

Consider `O=c1c2ccccc2[nH]c(=S)n1Cc1ccccn1` [ZINC16991592, reference compound], for which the Ki on MRGPRX2 [1] (Table 1, read-out: Ki) was 2190 nM; at MRGPRX2 [1] (setting [4]), 2340 nM; at MRGPRX2 [1] (setting [5]) it was 189 nM.

Turning to `O=c1c2ccccc2[nH]c(=S)n1Cc1ccccc1` [Compound 1], the Ki at MRGPRX2 [1] (Table 1, read-out: Ki) is 57 nM; on MRGPRX2 [1] (setting [4]), 63.1 nM.

Take `O=c1c2ccccc2[nH]c(=S)n1Cc1ccsc1` [Compound C9-9]: the “pKi (calc.)” value on MRGPRX2 [1] (Table 1) is on record as 7.32 ± 0.04. The Ki on MRGPRX2 [1] (Table 1, read-out: Ki) came out at 47 nM.

Consider `O=c1c2ccccc2[nH]c(=S)n1Cc1ccon1` [Compound C9-1], for which the “pKi (calc.)” value on MRGPRX2 [1] (Table 1) is listed as 6.76 ± 0.21. Besides, the Ki on MRGPRX2 [1] (Table 1, read-out: Ki) was 172 nM.

Take `O=c1c2ccccc2[nH]c(=S)n1Cc1ccc(Cl)cc1` [Compound C9-3]: the “pKi (calc.)” value on MRGPRX2 [1] (Table 1) was 5.75 ± 0.16. The Ki on MRGPRX2 [1] (Table 1, read-out: Ki) was determined as 1780 nM.

As for `O=c1c2ccccc2[nH]c(=S)n1Cc1cccs1` [Compound C9-8], the “pKi (calc.)” value at MRGPRX2 [1] (Table 1) is on record as 6.29 ± 0.23. Further, the Ki at MRGPRX2 [1] (Table 1, read-out: Ki) was 514 nM.

With `O=c1c2ccccc2[nH]c(=S)n1Cc1ccco1` [Compound C9-6], the off-target activity entry in assay [2] was “no significant activity”. On MRGPRX2 [3], the “inverse agonist activity, inhibition of basal recruitment of Gq by MRGPRX2” value is listed as “inhibit the basal recruitment of Gq by MRGPRX2; also recorded: inverse agonists”. On MRGPRX4, the “antagonist activity towards MRGPRX4” value is recorded as “no antagonist activity”. Also, the “inhibition of substance P stimulated MRGPRX2 activation” value at MRGPRX2 [1] was “inhibit substance P stimulated MRGPRX2 activation; also recorded: could inhibit MRGPRX2 activation”. The “pKi (calc.)” value on MRGPRX2 [1] (Table 1) was 7.42 ± 0.06. Further, the Ki was found to be 38 nM on MRGPRX2 [1] (Table 1, read-out: Ki) and 58 nM at MRGPRX2 [1] (setting [5]). On MRGPRX2 [1], the “antagonist activity for MRGPRX2” value is “improved antagonist activity; also recorded: most potent and selective antagonist”. The “antagonist activity towards NK1R” value on NK1R is given as “no antagonist activity”.

For the molecule `O=c1c2ccccc2[nH]c(=S)n1Cc1nccs1` [Compound 9], in assay [2], the off-target activity result is “no significant activity”. On MRGPRX2 [3] (listed as C9), the “inverse agonist activity, inhibition of basal recruitment of Gq by MRGPRX2” value is “inhibit the basal recruitment of Gq by MRGPRX2; also recorded: inverse agonists”. Besides, at MRGPRX4, the “antagonist activity towards MRGPRX4” value is recorded as “no antagonist activity”. On MRGPRX2 [1] (listed as C9), the “inhibition of substance P stimulated MRGPRX2 activation” value is “inhibit substance P stimulated MRGPRX2 activation; also recorded: could inhibit MRGPRX2 activation”; the “antagonist activity for MRGPRX2” value was “improved antagonist activity; also recorded: most potent and selective antagonist”. In addition, the “pKi (calc.)” value at MRGPRX2 [1] (Table 1) is recorded as 7.5. For the same molecule, the Ki on MRGPRX2 [1] (Table 1, read-out: Ki) came to 32 nM. Also, the Ki at MRGPRX2 [1] (setting [5]) stood at 43 nM. Further, the “inhibition of (R)-ZINC-3573-stimulated LAD2 human mast cell degranulation” value with LAD2 human mast cells was “inhibit MRGPRX2 mediated LAD2 human mast activation; also recorded: inhibit (R)-ZINC-3573-stimulated LAD2 human mast cell degranulation in a concentration-dependent manner”. In addition, the “antagonist activity towards NK1R” value at NK1R is listed as “no antagonist activity”.

In the case of `Cc1csc(Cn2c(=S)[nH]c3ccccc3c2=O)n1` [Compound C9-7], at MRGPRX2 [1] (Table 1), the “pKi (calc.)” value is 6.03 ± 0.08. On MRGPRX2 [1] (Table 1, read-out: Ki), the Ki worked out at 929 nM.

For the molecule `O=c1c2ccccc2[nH]c(=S)n1CCc1ccccn1` [Compound 7], the “pKi (calc.)” value at MRGPRX2 [1] (Table 1) is given as 5.2. Further, on MRGPRX2 [1] (Table 1, read-out: Ki), the Ki was 6520 nM. Further, the “antagonist activity for MRGPRX2” value at MRGPRX2 [1] is “inactive control”.

As for `O=c1c2ccccc2[nH]c(=S)n1Cc1ccon1` [Compound 5], the Ki is 895 nM at MRGPRX2 [1] (Table 1, read-out: Ki) and 1000 nM at MRGPRX2 [1] (setting [4]).

As for `COc1cccnc1Cn1c(=S)[nH]c2ccccc2c1=O` [Compound 8], the Ki was 57 nM on MRGPRX2 [1] (Table 1, read-out: Ki) and 63.1 nM on MRGPRX2 [1] (setting [4]).

Turning to `COc1ccccc1Cn1c(=S)[nH]c2ccccc2c1=O` [Compound C9-5], the “pKi (calc.)” value at MRGPRX2 [1] (Table 1) was 7.01 ± 0.07. In addition, at MRGPRX2 [1] (Table 1, read-out: Ki), the Ki amounted to 98 nM.

Turning to `O=c1c2ccccc2[nH]c(=S)n1Cc1ccccc1Cl` [Compound C9-4], the “pKi (calc.)” value at MRGPRX2 [1] (Table 1) is reported as 5.93 ± 0.3. For the same molecule, the Ki on MRGPRX2 [1] (Table 1, read-out: Ki) was 1160 nM.
